The results in this text go back to patent US11279733B2, “Peptide antibiotics” (priority 2017, dated 2022).

One data set has as its system Neisseria gonorrhoeae. The data set is described as follows: MIC determination, Neisseria gonorrhoeae. The format is cell-based. As to conditions: strain FA19 ATCC BAA-1838. The protocol: Bacteria were either obtained from American Type Culture Collection (ATCC; Manassas, Va., USA) or independent academic clinical isolate collections, as listed in Table 18 below. Bacteria were cultured in Nutrient broth (NB; Bacto Laboratories, catalogue No. 234000) or Mueller Hinton broth (MHB; Bacto Laboratories, catalogue No. 211443) at 37° C. overnight with shaking (˜180 RPM). A sample of each culture was then diluted 50-fold in fresh MHB and incubated at 37° C. for 2-3 h with shaking (˜180 RPM). Compound stock solutions were prepared as 0.64 mg/mL or 2.56 mg/mL in water. The compounds, at twice the final desired concentration, were serially diluted 2-fold across the wells of 96-well plates (Polystyrene, Corning, catalogue No. 3370). Mid-log phase bacterial cultures (after 2-3 h incubation) were diluted to a final concentration of 1×10^6 colony forming units (CFU)/mL, and 50 μL was added to each well giving a final cell density of 5×10^5 and a compound concentration range of 32 μg/mL to 0.015 μg/mL (128-0.06 μg/mL against P. aeruginosa PA9704).

For a further data set, the system named is A. baumannii ATCC 19606. As to conditions: ATCC 19606. The method, boiled down:
(§1)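 Mid-log cultures grown in Mueller Hinton broth at 37° C were tested by 2-fold broth microdilution at 5×10^5 CFU/mL final. Compounds were dissolved in water and tested over a final range of 32 to 0.015 μg/mL.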

A further data set deals with K. pneumoniae ATCC 13883. As to conditions: ATCC 13883. The gist of the method:
as §1

The subject of the next data set is P. aeruginosa ATCC 27853. Conditions: ATCC 27853. The method, boiled down: as §1
The test system of data set [1] is P. aeruginosa GN_043, PmxR. Conditions: polymyxin-resistant. The gist of the method:
as §1

The test system of data set [2] is K. pneumoniae ATCC BAA-2146, NDM-1 pos. Conditions: ATCC BAA-2146. The gist of the method:
as §1

Data set [3] deals with K. pneumoniae GN_102 PmxR. As to conditions: GN 102 PmxR. The method, boiled down: as §1
For data set [4], the system named is P. aeruginosa GN_105, PmxR. Conditions: GN 105, PmxR. The method, boiled down: as §1
Another data set relates to A. baumannii GN_093 PmxR. As to conditions: GN 093 PmxR. The gist of the method:
as §1

The next data set concerns E. coli ATCC 25922. As to conditions: ATCC 25922. The method, boiled down:
as §1

Data set [5] has as its system K. pneumoniae ATCC 700603, MDR. As to conditions: ATCC 700603. The gist of the method: as §1
For data set [6], the system named is K. pneumoniae GN_106, PmxR. Conditions: GN 106, PmxR. The gist of the method:
as §1

In data set [7] the test system is S. aureus ATCC 25923, MSSA. Conditions: ATCC 25923. The method, boiled down:
as §1

Another data set can be described thus: in vitro. Conditions: human. The method, boiled down: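 Cells (4000/well, pre-attached 24 h) then received 5 μM resazurin for 2 h, with fluorescence measured at ex 560/em 590.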

Values after ≈ are worked out from the molar mass of the structure shown. Positions of bridges follow the written chain, without caps; N, C: chain ends. Non-standard residues stand in square brackets, D forms with d. Residues, ends and D or L forms follow the SMILES beside them. *: point of attachment. Decanoyl(3R-OH) = CCCCCCC[C@@H](O)CC(=O)*; 1Nal = N[C@@H](Cc1cccc2ccccc12)C(=O)O; Igl = N[C@H](C(=O)O)C1Cc2ccccc2C1; hPhe = N[C@@H](CCc1ccccc1)C(=O)O; dDab = NCC[C@@H](N)C(=O)O; Dab = NCC[C@H](N)C(=O)O

In the case of `CCCCCCC[C@@H](O)CC(=O)N[C@H](CCN)C(=O)N[C@H]1CCNC(=O)[C@H](Cc2cccc3ccccc23)NC(=O)[C@H](CCN)NC(=O)[C@H](CCN)NC(=O)[C@H](CC(C)C)NC(=O)[C@@H](Cc2ccccc2)NC(=O)[C@H](CCN)NC1=O` [compound 8909, 3(R)OH-nC9CO-D-Dab-cyc[L-Dab-L-Dab-D-Phe-L-Leu-L-Dab-L-Dab-L-Ala(1Naphthyl)]] ({Decanoyl(3R-OH)}-[dDab][Dab][Dab][dF]L[Dab][Dab][1Nal]; lactam 2-C), in the data set on Neisseria gonorrhoeae, the “MIC N. gonorrhoeae FA19 ATCC BAA-1838” value came out at 0.78 µg/mL (≈ 0.691 µM). Besides, the “MIC A. baumannii ATCC 19606” value in the data set with A. baumannii ATCC 19606 stood at 4 µg/mL (≈ 3.54 µM). The “MIC K. pneumoniae ATCC 13883” value against K. pneumoniae ATCC 13883 was determined as 2 µg/mL (≈ 1.77 µM). Also, in the data set with P. aeruginosa ATCC 27853, the “MIC P. aeruginosa ATCC 27853” value was 2 µg/mL (≈ 1.77 µM). Further, the “MIC P. aeruginosa GN_043, PmxR” value in data set [1] came to 4 µg/mL (≈ 3.54 µM). Besides, the “MIC K. pneumoniae ATCC BAA-2146, NDM-1 pos” value in data set [2] was determined as 4 µg/mL (≈ 3.54 µM). The “MIC K. pneumoniae GN_102 PmxR” value in data set [3] is 4 µg/mL (≈ 3.54 µM). For the same compound, the “MIC P. aeruginosa GN_105, PmxR” value in data set [4] is 2 µg/mL (≈ 1.77 µM). In addition, the “MIC A. baumannii GN_093 PmxR” value in the data set with A. baumannii GN_093 PmxR came to 4 µg/mL (≈ 3.54 µM). In addition, in the data set on E. coli ATCC 25922, the “MIC E. coli ATCC 25922” value was 2 µg/mL (≈ 1.77 µM). Besides, in [5], the “MIC K. pneumoniae ATCC 700603, MDR” value was found to be 2 µg/mL (≈ 1.77 µM). Besides, in data set [6], the “MIC K. pneumoniae GN_106, PmxR” value came out at 4 µg/mL (≈ 3.54 µM). In addition, the “MIC S. aureus ATCC 25923, MSSA” value in data set [7] worked out at 2 µg/mL (≈ 1.77 µM). In the data set “in vitro”, the CC50 at 24 h was 26 µM.

Turning to `CCCCCCC[C@@H](O)CC(=O)N[C@H](CCN)C(=O)N[C@H]1CCNC(=O)[C@H](C2Cc3ccccc3C2)NC(=O)[C@H](CCN)NC(=O)[C@H](CCN)NC(=O)[C@H](CC(C)C)NC(=O)[C@@H](Cc2ccccc2)NC(=O)[C@H](CCN)NC1=O` [compound 8912, 3(R)OH-nC9CO-D-Dab-cyc[L-Dab-L-Dab-D-Phe-L-Leu-L-Dab-L-Dab-L-indanylgly]] ({Decanoyl(3R-OH)}-[dDab][Dab][Dab][dF]L[Dab][Dab][Igl]; lactam 2-C), the “MIC N. gonorrhoeae FA19 ATCC BAA-1838” value with Neisseria gonorrhoeae was found to be 0.78 µg/mL (≈ 0.706 µM). Besides, the “MIC A. baumannii ATCC 19606” value in the data set with A. baumannii ATCC 19606 amounted to 4 µg/mL (≈ 3.62 µM). Besides, the “MIC K. pneumoniae ATCC 13883” value against K. pneumoniae ATCC 13883 is 2 µg/mL (≈ 1.81 µM). Besides, the “MIC P. aeruginosa ATCC 27853” value in the data set on P. aeruginosa ATCC 27853 stood at 2 µg/mL (≈ 1.81 µM). Also, in data set [1], the “MIC P. aeruginosa GN_043, PmxR” value is 2 µg/mL (≈ 1.81 µM). In [2], the “MIC K. pneumoniae ATCC BAA-2146, NDM-1 pos” value was 4 µg/mL (≈ 3.62 µM). Moreover, in [3], the “MIC K. pneumoniae GN_102 PmxR” value is 2 µg/mL (≈ 1.81 µM). Further, the “MIC P. aeruginosa GN_105, PmxR” value in data set [4] was found to be 2 µg/mL (≈ 1.81 µM). In addition, the “MIC A. baumannii GN_093 PmxR” value in the data set on A. baumannii GN_093 PmxR turned out to be 4 µg/mL (≈ 3.62 µM). In addition, the “MIC E. coli ATCC 25922” value in the data set on E. coli ATCC 25922 was 2 µg/mL (≈ 1.81 µM). Besides, the “MIC K. pneumoniae ATCC 700603, MDR” value in data set [5] came out at 4 µg/mL (≈ 3.62 µM). Moreover, the “MIC K. pneumoniae GN_106, PmxR” value in [6] worked out at 2 µg/mL (≈ 1.81 µM). The “MIC S. aureus ATCC 25923, MSSA” value in data set [7] was determined as 2 µg/mL (≈ 1.81 µM). Also, in the data set “in vitro”, the CC50 at 24 h was 28 µM.

`CCCCCCC[C@@H](O)CC(=O)N[C@H](CCN)C(=O)N[C@H]1CCNC(=O)[C@H](CCc2ccccc2)NC(=O)[C@H](CCN)NC(=O)[C@H](CCN)NC(=O)[C@H](CC(C)C)NC(=O)[C@@H](Cc2ccccc2)NC(=O)[C@H](CCN)NC1=O` [compound 8913, 3(R)OH-nC9CO-D-Dab-cyc[L-Dab-L-Dab-D-Phe-L-Leu-L-Dab-L-Dab-L-hPhe]] ({Decanoyl(3R-OH)}-[dDab][Dab][Dab][dF]L[Dab][Dab][hPhe]; lactam 2-C): the “MIC N. gonorrhoeae FA19 ATCC BAA-1838” value with Neisseria gonorrhoeae came out at 1.56 µg/mL (≈ 1.43 µM). The “MIC A. baumannii ATCC 19606” value against A. baumannii ATCC 19606 stood at 8 µg/mL (≈ 7.32 µM). Also, the “MIC K. pneumoniae ATCC 13883” value in the data set on K. pneumoniae ATCC 13883 amounted to 4 µg/mL (≈ 3.66 µM). In addition, the “MIC P. aeruginosa ATCC 27853” value against P. aeruginosa ATCC 27853 was found to be 2 µg/mL (≈ 1.83 µM). In addition, in data set [1], the “MIC P. aeruginosa GN_043, PmxR” value turned out to be 4 µg/mL (≈ 3.66 µM). In addition, in data set [2], the “MIC K. pneumoniae ATCC BAA-2146, NDM-1 pos” value turned out to be 4 µg/mL (≈ 3.66 µM). In data set [3], the “MIC K. pneumoniae GN_102 PmxR” value worked out at 2 µg/mL (≈ 1.83 µM). In addition, the “MIC P. aeruginosa GN_105, PmxR” value in data set [4] turned out to be 2 µg/mL (≈ 1.83 µM). Further, the “MIC A. baumannii GN_093 PmxR” value in the data set on A. baumannii GN_093 PmxR turned out to be 4 µg/mL (≈ 3.66 µM). Also, in the data set with E. coli ATCC 25922, the “MIC E. coli ATCC 25922” value worked out at 2 µg/mL (≈ 1.83 µM). In addition, the “MIC K. pneumoniae ATCC 700603, MDR” value in data set [5] was found to be 4 µg/mL (≈ 3.66 µM). The “MIC K. pneumoniae GN_106, PmxR” value in data set [6] is 2 µg/mL (≈ 1.83 µM). In [7], the “MIC S. aureus ATCC 25923, MSSA” value was determined as 4 µg/mL (≈ 3.66 µM). This compound also had a CC50 at 24 h in “in vitro” of 32 µM.
